Measurements reported in patent US20210386754A1, “COMPOSITIONS AND METHODS FOR TREATING ATHEROSCLEROTIC VASCULAR DISEASE” (AUGUSTA UNIVERSITY RESEARCH INSTITUTE, INC., priority 2020, published 2021).
Entries after “also recorded” stand apart in the source; their conditions may differ.

Key:
[1] = tested on: RAW 264.7 macrophages; assay: Caveolin-mediated endocytosis of Alexa Fluor 488-albumin; format: cell-based; details: EIPA 25 μM, 1 hr; AF488-albumin 1 μg/ml
Protocol: Clathrin- and caveolin-mediated endocytosis: Receptor-mediated uptake of FITC-transferrin (1 μg/mL; clathrin-mediated endocytosis) and Alexa Fluor 488-albumin ([…]; caveolin-mediated endocytosis) was investigated in RAW 264.7 macrophages following their incubation with ±EIPA (25 μM; 1 hour pre-incubation). Fluorescence intensity was measured using the FL1 channel for FITC and Alexa Fluor 488 (Ex: 488 nm, Em: 530 nm).

[2] = tested on: human aortic endothelial cells; assay: qRT-PCR of SR-B1 mRNA expression; format: cell-based; details: EIPA 25 μM, 24 hr
[3] = tested on: macrophages (SR-mediated ox-LDL uptake); assay: SR-mediated ox-LDL uptake; format: cell-based; details: EIPA 25 μM, 1 hr; ox-LDL 50 μg/ml
Protocol: Foam cell formation: THP-1 macrophages or bone marrow-derived macrophages were treated with vehicle, known macropinocytosis stimulators (PMA 1 μM, M-CSF 100 ng/mL or PDGF 200 ng/mL)+/− macropinocytosis inhibitors (imipramine 10 μM or EIPA 25 μM; 1 hour pre-incubation) in the presence of nLDL, ox-LDL, or ac-LDL ([…]) for 24 hours. Cells were fixed in 2% PFA and stained with Nile Red (50 ng/mL) for 7 min. Fluorescence intensity was measured using the FL3 channel for Nile Red (Ex: 488 nm, Em: 670 nm).

[4] = tested on: THP-1 monocytes on human aortic endothelial cells; assay: Monocyte adhesion assay; format: cell-based; details: EIPA 25 μM; HAEC TNFα 10 ng/ml, 4 hr
Protocol: Adhesion studies were performed using the human monocyte cell line THP-1. Vehicle- or EIPA (25 μM, 24 hours)-treated THP-1 monocytes were labeled using Vybrant™ CFDA SE Cell Tracer Kit (ThermoFisher). Human aortic endothelial cell monolayers grown on coverslips in a 24-well plate were treated with vehicle (PBS) or TNFα (10 ng/ml) for 4 hours. Endothelial cells were labeled with Cell Tracker™ Deep Red Dye (ThermoFisher). Fifty microliter of THP-1 monocyte suspension containing 1×10^6 cells was added to each well of endothelial cells, and the plates were gently agitated and placed in a cell culture incubator for 1 hour. At the end of the incubation period, the monolayer was gently washed three times with cold PBS. After the final wash, coverslips were stained with Hoechst 33342 (ThermoFisher) and mounted onto slides using mounting medium. Fluorescent signals were detected using a Zeiss 780 upright confocal microscopy. Quantification was completed with Image-Pro Plus software (Media Cybemetics, Bethesda, Md., USA).

[5] = tested on: RAW 264.7 macrophages; assay: Measurement of cholesterol efflux (DiI); format: cell-based; details: EIPA 25 μM, 1 hour
Protocol: RAW 264.7 macrophages were pretreated with vehicle or EIPA (25 μM, 1 hour) and incubated with PMA (1 μM) in the presence or absence of Dil-LDL (50 μg/mL) at 37° C. for 24 h. Cells were washed 3 times with PBS, RPMI-1640 medium containing 1% FBS was added and cells incubated for another 24 hours. Finally, the medium was collected and Dil fluorescence intensity in the media was measured using a CLARIOstar multi-mode microplate reader.

[6] = tested on: F4/80+ macrophages of atherosclerotic ApoE-/- aorta; assay: In vivo DiI-nLDL uptake by macrophages of atherosclerotic arteries; parameters: species or system mouse; details: EIPA 25 mg/kg/day, i.p. for 3 days; DiI-nLDL 100 μg retro-orbitally; 12 weeks Western diet
Protocol: Isolation of macrophages from atherosclerotic arteries: 8-10-week-old ApoE^−/− mice were fed a Western diet for 12 weeks. Mice were treated with vehicle or EIPA (25 mg/kg/day, i.p.) for 3 days. On the day of sacrifice, mice were retro-orbitally injected with vehicle or 100 μg Dil-nLDL. After 4 hours, mice were anaesthetized and perfused with ice-cold PBS for 5 min and the entire thoracic aorta with LCA was isolated. Following removal of the adventitia, macrophages were isolated using the Neonatal Heart Dissociation Kit (Miltenyi Biotech.) and CD11b microbeads (Miltenyi Biotech.). Cells were stained with anti-F4/80-APC (clone BM8) or IgG control antibodies (Biolegend). Dil fluorescence was measured in F4/80-positive macrophages [Dil (Ex: 549 nm, Em: 565 nm) and APC (Ex: 640 nm, Em: 670 nm)].

[7] = tested on: Wild type BMDM; assay: Cytokine secretion, LEGENDplex bead-based immunoassay; format: cell-based, mouse
Protocol: Wild type BMDM were incubated with vehicle or treated with EIPA (25 μM, 24 hours). Cytokine secretion into the media was quantified using the LEGENDplex™ (mouse inflammation panel) bead-based immunoassay according to the manufacturer's instructions (BioLegend, San Diego, Calif., USA). Data were acquired using four-color BD FACSCalibur (BD Biosciences, San Jose, Calif., USA) and analyzed using the LEGENDplex Data Analysis software (BioLegend).

[8] = tested on: ApoE-/- mice; assay: Atherosclerosis model: ApoE-/- mice, partial LCA ligation, Western diet; format: in vivo, mouse; details: male ApoE-/- mice, Western diet 4 weeks, EIPA via subcutaneously implanted minipump

With CCN(c1nc(N)c(C(=O)N=C(N)N)nc1Cl)C(C)C [EIPA, 5-(N-ethyl-N-isopropyl)amiloride] the caveolin-dependent albumin internalization [1] was “without inhibiting; also recorded: does not inhibit”, the “SR-B1 mRNA levels” value [2] was “does not increase” and the “SR-mediated ox-LDL uptake” value [3] was “without inhibiting; also recorded: does not inhibit”. The “monocyte adhesion to TNFα-treated endothelial cells” value [4] was “does not inhibit”, the “cholesterol efflux in lipid-laden macrophages” value [5] was “does not promote” and the “DiI-LDL uptake by F4/80+ macrophages in atherosclerotic arteries” value [6] was “substantially inhibited”. For the same compound, the IL-6 secretion ([7]; EIPA 25 μM, 24 hours, n = 3, vehicle 2.40 ± 0.58) was 1.82 ± 0.40 pg/mL, the TNFα secretion ([7]; EIPA 25 μM, 24 hours, n = 3, vehicle 7.83 ± 1.89) was 4.76 ± 0.77 pg/mL and the MCP-1 secretion ([7]; EIPA 25 μM, 24 hours, n = 3, vehicle 38.04 ± 6.03) was 22.19 ± 2.30 pg/mL. For the same compound, the “macrophage secretion of TNF-α, MCP-1, and IL-6” value ([7]; in the absence of exogenous lipids) was “does not inhibit” and the “atherosclerosis (ORO positive area, LCA)” value [8] was “inhibited atherosclerosis; also recorded: attenuates”.
